Reference: patent US20130005747A1, “METHOD FOR SELECTING A CANCER THERAPY” (Cyclacel Limited, priority 2010, published 2013)

Columns and labels:
Experiment in all cases: Fractional growth, 72 h seliciclib
Type in all cases: cell-based, human
A-375 = A-375 (Skin), 15 μM seliciclib
From the text: (§1) A total of 270 human cancer cell lines from diverse cancer histopathologic types were investigated.

A431 = A431 (Skin), 15 μM seliciclib
From the text: as §1

BHY = BHY (Head & Neck), 15 μM seliciclib
From the text: as §1

BPH-1 = BPH-1 (Prostate), 15 μM seliciclib
From the text: as §1

CAL-12T = CAL-12T (Lung: NSCLC), 15 μM seliciclib
From the text: as §1

CAL-62 = CAL-62 (Thyroid), 15 μM seliciclib
From the text: as §1

Ca9-22 = Ca9-22 (Head & Neck), 15 μM seliciclib
From the text: as §1

Caki-1 = Caki-1 (Kidney), 15 μM seliciclib
From the text: as §1

Calu-1 = Calu-1 (Lung: NSCLC), 15 μM seliciclib
From the text: as §1

EJ138 = EJ138 (Bladder), 15 μM seliciclib
From the text: as §1

GTL-16 = GTL-16 (Stomach), 15 μM seliciclib
From the text: as §1

H4 = H4 (Brain), 15 μM seliciclib
From the text: as §1

HCC1395 = HCC1395 (Breast), 15 μM seliciclib
From the text: as §1

HEC-1 = HEC-1 (Uterus), 15 μM seliciclib
From the text: as §1

KU-19-19 = KU-19-19 (Bladder), 15 μM seliciclib
From the text: as §1

LCLC-103H = LCLC-103H (Lung: NSCLC), 15 μM seliciclib
From the text: as §1

LNZTA3WT4 = LNZTA3WT4 (Brain), 15 μM seliciclib
From the text: as §1

LS174T = LS174T (Intestine), 15 μM seliciclib
From the text: as §1

MDA-MB-231 = MDA-MB-231 (Breast), 15 μM seliciclib
From the text: as §1

NAE = NAE (Skin), 15 μM seliciclib
From the text: as §1

NCI-H1048 = NCI-H1048 (Lung), 15 μM seliciclib
From the text: as §1

NCI-H1299 = NCI-H1299 (Lung: NSCLC), 15 μM seliciclib
From the text: as §1

NCI-H1568 = NCI-H1568 (Lung: NSCLC), 15 μM seliciclib
From the text: as §1

NCI-H2122 = NCI-H2122 (Lung: NSCLC), 15 μM seliciclib
From the text: as §1

NCI-H2347 = NCI-H2347 (Lung: NSCLC), 15 μM seliciclib
From the text: as §1

PCI-15A = PCI-15A (Head & Neck), 15 μM seliciclib
From the text: as §1

PCI-15B = PCI-15B (Head & Neck), 15 μM seliciclib
From the text: as §1

PCI-4A = PCI-4A (Head & Neck), 15 μM seliciclib
From the text: as §1

RT-112 = RT-112 (Bladder), 15 μM seliciclib
From the text: as §1

SAS = SAS (Head & Neck), 15 μM seliciclib
From the text: as §1

SBC-5 = SBC-5 (Lung), 15 μM seliciclib
From the text: as §1

SCaBER = SCaBER (Bladder), 15 μM seliciclib
From the text: as §1

SNU-449 = SNU-449 (Liver), 15 μM seliciclib
From the text: as §1

SW 13 = SW 13 (Kidney), 15 μM seliciclib
From the text: as §1

SW620 = SW620 (Intestine), 15 μM seliciclib
From the text: as §1

U-2 OS = U-2 OS (Bone), 15 μM seliciclib
From the text: as §1

WM 266-4 = WM 266-4 (Skin), 15 μM seliciclib
From the text: as §1

CC[C@H](CO)Nc1nc(NCc2ccccc2)c2ncn(C(C)C)c2n1 [seliciclib, roscovitine]
Fractional Growth (A-375): 0.1771
Fractional Growth (A431): 0.3116
Fractional Growth (BHY): 0.5602
Fractional Growth (BPH-1): 0.6039
Fractional Growth (CAL-12T): 0.3472
Fractional Growth (CAL-62): 0.3139
Fractional Growth (Ca9-22): 0.4623
Fractional Growth (Caki-1): 0.3885
Fractional Growth (Calu-1): 0.6124
Fractional Growth (EJ138): 0.3103
Fractional Growth (GTL-16): 0.6482
Fractional Growth (H4): 0.9708
Fractional Growth (HCC1395): 0.6999
Fractional Growth (HEC-1): 0.4632
Fractional Growth (KU-19-19): 0.3033
Fractional Growth (LCLC-103H): 0.5051
Fractional Growth (LNZTA3WT4): 0.6936
Fractional Growth (LS174T): 0.3713
Fractional Growth (MDA-MB-231): 0.4643
Fractional Growth (NAE): 0.3413
Fractional Growth (NCI-H1048): 0.5502
Fractional Growth (NCI-H1299): 0.3352
Fractional Growth (NCI-H1568): 0.3317
Fractional Growth (NCI-H2122): 0.1093
Fractional Growth (NCI-H2347): 0.3299
Fractional Growth (PCI-15A): 0.4965
Fractional Growth (PCI-15B): 0.2847
Fractional Growth (PCI-4A): 0.3628
Fractional Growth (RT-112): 0.243
Fractional Growth (SAS): 0.3207
Fractional Growth (SBC-5): 0.7399
Fractional Growth (SCaBER): 0.5642
Fractional Growth (SNU-449): 0.6309
Fractional Growth (SW 13): 0.5624
Fractional Growth (SW620): 0.7486
Fractional Growth (U-2 OS): 0.5686
Fractional Growth (WM 266-4): 0.4972
